Activity calls are given as the source filed them. The calls are words filed in the database; no cut-off is given here.
How the values were obtained:
SK-BR-3 = assay: Antiproliferative activity against human SKBR3 cells after 72 hrs by Cell Titer 96 Aqueous One Solution cell proliferation assay; format: functional
NCI-H1975 [1] = assay: Antiproliferative activity against human NCI-H1975 cells after 72 hrs by Cell Titer 96 Aqueous One Solution cell proliferation assay; format: functional; conditions: NCI-H1975, 72 h
[2] = biological target: T1, Heat shock protein HSP 90-alpha (Homo sapiens, UniProt P07900); assay: Inhibition of FITC-geldanamycin binding to N-terminal domain of recombinant full-length HSP90alpha (unknown origin) after 16 hrs by fluorescence polarization assay
[3] = biological target: T1, Heat shock protein HSP 90-alpha; assay: Binding affinity to N-terminal domain of recombinant full-length HSP90alpha (unknown origin) by surface plasmon resonance assay
[4] = biological target: T2, Heat shock protein HSP90 (Homo sapiens) (UniProt P07900+P08238); assay: Inhibition of HSP90 in human NCI-H1975 cells assessed as decrease in EGFR protein expression at 0.05 to 1 uM after 24 hrs by Western blot analysis; format: cell-based
[5] = biological target: T2, Heat shock protein HSP90 (Homo sapiens); assay: Inhibition of HSP90 in human NCI-H1975 cells assessed as decrease in Her2 protein expression at 0.05 to 1 uM after 24 hrs by Western blot analysis; format: cell-based
[6] = biological target: T2, Heat shock protein HSP90 (Homo sapiens); assay: Inhibition of HSP90 in human NCI-H1975 cells assessed as decrease in Met protein expression at 0.05 to 1 uM after 24 hrs by Western blot analysis; format: cell-based
[7] = biological target: T2, Heat shock protein HSP90 (Homo sapiens); assay: Inhibition of HSP90 in human NCI-H1975 cells assessed as decrease in Akt protein expression at 0.05 to 1 uM after 24 hrs by Western blot analysis; format: cell-based
[8] = biological target: T2, Heat shock protein HSP90 (Homo sapiens); assay: Inhibition of HSP90 in human NCI-H1975 cells assessed as decrease in c-Raf protein expression at 0.05 to 1 uM after 24 hrs by Western blot analysis; format: cell-based
[9] = biological target: T2, Heat shock protein HSP90 (Homo sapiens); assay: Inhibition of HSP90 in human NCI-H1975 cells assessed as induction of HSP70 expression at 0.05 to 1 uM after 24 hrs by Western blot analysis; format: cell-based
[10] = biological target: T2, Heat shock protein HSP90 (Homo sapiens); assay: Inhibition of HSP90 in human NCI-H1975 cells assessed as induction of HSP90 expression at 0.05 to 1 uM after 24 hrs by Western blot analysis; format: cell-based
NCI-H1975 [11] = assay: Induction of apoptosis in human NCI-H1975 cells assessed as increase in cleaved PARP expression at 0.05 to 1 uM after 24 hrs by Western blot analysis; format: functional, cell-based
NCI-H1975 [12] = assay: Induction of apoptosis in human NCI-H1975 cells assessed as increase in cleaved caspase-3 expression at 0.05 to 1 uM after 24 hrs by Western blot analysis; format: functional, cell-based
NCI-H1975 [13] = assay: Induction of apoptosis in human NCI-H1975 cells assessed as increase in cleaved caspase-8 expression at 0.05 to 1 uM after 24 hrs by Western blot analysis; format: functional, cell-based
NCI-H1975 [14] = assay: Induction of apoptosis in human NCI-H1975 cells assessed as increase in Bax expression levels at 0.05 to 1 uM after 24 by Western blot analysis; format: functional, cell-based
NCI-H1975 [15] = assay: Induction of apoptosis in human NCI-H1975 cells assessed as increase in Bcl2 expression levels at 0.05 to 1 uM after 24 by Western blot analysis; format: functional, cell-based
Cytochrome P450 2C9 = Cytochrome P450 2C9 (Homo sapiens, UniProt P11712); assay: Inhibition of CYP2C9 in human pooled human liver microsomes using tolbutamide as substrate assessed as tolbutamide 4-methylhydroxylation preincubated for 5 mins followed by NADPH addition measured after 15 mins by LC-MS/MS analysis; format: ADME
Cytochrome P450 1A2 = biological target: T3, Cytochrome P450 1A2 (Homo sapiens, UniProt P05177); assay: Inhibition of CYP1A2 in human pooled human liver microsomes using phenacetin as substrate assessed as […] preincubated for 5 mins followed by NADPH addition measured after 15 mins by LC-MS/MS analysis; format: ADME
T3 sequence (P05177 whole entry): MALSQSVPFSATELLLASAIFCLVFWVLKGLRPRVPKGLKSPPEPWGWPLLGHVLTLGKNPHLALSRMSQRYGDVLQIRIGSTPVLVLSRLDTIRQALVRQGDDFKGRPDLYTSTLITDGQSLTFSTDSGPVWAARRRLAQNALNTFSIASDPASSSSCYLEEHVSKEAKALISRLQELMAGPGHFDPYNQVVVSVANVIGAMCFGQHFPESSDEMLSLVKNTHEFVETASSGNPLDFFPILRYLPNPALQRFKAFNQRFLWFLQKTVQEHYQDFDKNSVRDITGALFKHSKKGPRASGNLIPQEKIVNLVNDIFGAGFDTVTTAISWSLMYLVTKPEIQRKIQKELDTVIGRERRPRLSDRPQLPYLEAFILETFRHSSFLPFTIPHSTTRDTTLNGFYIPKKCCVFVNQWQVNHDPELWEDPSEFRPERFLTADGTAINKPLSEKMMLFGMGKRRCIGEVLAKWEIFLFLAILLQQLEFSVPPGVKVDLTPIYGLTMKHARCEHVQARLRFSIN

Cytochrome P450 2C19 = Cytochrome P450 2C19 (Homo sapiens, UniProt P33261); assay: Inhibition of CYP2C19 in human pooled human liver microsomes using omeprazole as substrate assessed as omepraozle hydroxylation preincubated for 5 mins followed by NADPH addition measured after 15 mins by LC-MS/MS analysis; format: ADME
Cytochrome P450 2D6 = Cytochrome P450 2D6 (Homo sapiens, UniProt P10635); assay: Inhibition of CYP2D6 in human pooled human liver microsomes using dextromethorphan as substrate assessed as dextromethorphan O-demethylation preincubated for 5 mins followed by NADPH addition measured after 15 mins by LC-MS/MS analysis; format: ADME
CYP3A = CYP3A (Homo sapiens, UniProt P08684+P20815+P24462+Q9HB55); assay: Inhibition of CYP3A in human pooled human liver microsomes using midazolam as substrate assessed as midazolam 1'-hydroxylation preincubated for 5 mins followed by NADPH addition measured after 15 mins by LC-MS/MS analysis; format: ADME; conditions: probe midazolam
Mus musculus [16] = assay: Toxicity in NOD-scid IL2Rgamma null mouse xenografted with human NCI-H1975 cells assessed as change in body weight at 25 to 50 mg/kg, ip dosed daily for 5 days per week followed by 2 days rest for 3 weeks and measured after 21 days post dose; format: organism-based; conditions: in vivo, 504 h
NCI-H1975 [17] = assay: Antitumor activity against human NCI-H1975 cells xenografted in NOD-scid IL2Rgamma null mouse assessed as delay in tumor growth at 25 to 50 mg/kg, ip dosed daily for 5 days per week followed by 2 days rest for 3 weeks and measured up to 21 days post dose; format: functional, organism-based
Mus musculus [18] = assay: (§1) In vivo inhibition of HSP90 in NOD-scid IL2Rgamma null mouse tumor xenografted with human NCI-H1975 cells assessed as decrease in EGFR protein expression at 25 to 50 mg/kg, ip dosed daily for 5 days per week followed by 2 days rest for 3 weeks and measured after 21 days post dose by immunoblot analysis; format: functional, organism-based
Mus musculus [19] = assay: as §1, with “Met” for “EGFR”; format: functional, organism-based
Mus musculus [20] = assay: as §1, with “Akt” for “EGFR”; format: functional, organism-based
Mus musculus [21] = assay: as §1, with “haematoxylin and eosin staining-based immunohistochemical” for “immunoblot”; format: functional, organism-based
Mus musculus [22] = assay: as §1, with “Met” for “EGFR”, “haematoxylin and eosin staining-based immunohistochemical” for “immunoblot”; format: functional, organism-based
Mus musculus [23] = assay: as §1, with “Akt” for “EGFR”, “haematoxylin and eosin staining-based immunohistochemical” for “immunoblot”; format: functional, organism-based
NCI-H1975 [24] = assay: Effect on beta-actin protein levels in human NCI-H1975 cells at 0.05 to 1 uM after 24 hrs by Western blot analysis; format: ADME, cell-based; conditions: nci-h1975, 24 h
Mus musculus [25] = assay: Toxicity in NOD-scid IL2Rgamma null mouse xenografted with human NCI-H1975 cells assessed as induction of abnormal behaviours at 25 to 50 mg/kg, ip measured after 21 days; format: organism-based; conditions: in vivo, 504 h

Sequence of Cytochrome P450 2C19 (P33261 whole entry): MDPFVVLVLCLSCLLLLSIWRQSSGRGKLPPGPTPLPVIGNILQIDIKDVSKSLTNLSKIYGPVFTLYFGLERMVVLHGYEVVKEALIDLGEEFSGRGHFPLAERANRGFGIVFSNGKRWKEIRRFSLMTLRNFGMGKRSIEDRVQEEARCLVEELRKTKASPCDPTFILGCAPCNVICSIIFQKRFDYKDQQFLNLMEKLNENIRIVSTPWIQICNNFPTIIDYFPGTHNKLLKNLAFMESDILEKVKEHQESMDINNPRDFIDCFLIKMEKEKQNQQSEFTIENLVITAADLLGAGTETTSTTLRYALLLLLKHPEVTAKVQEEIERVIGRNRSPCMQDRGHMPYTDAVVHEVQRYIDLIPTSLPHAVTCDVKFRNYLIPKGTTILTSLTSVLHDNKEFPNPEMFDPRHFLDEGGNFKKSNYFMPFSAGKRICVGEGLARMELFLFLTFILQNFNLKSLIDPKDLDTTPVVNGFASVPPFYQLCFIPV
Sequence of Cytochrome P450 2D6 (P10635 whole entry): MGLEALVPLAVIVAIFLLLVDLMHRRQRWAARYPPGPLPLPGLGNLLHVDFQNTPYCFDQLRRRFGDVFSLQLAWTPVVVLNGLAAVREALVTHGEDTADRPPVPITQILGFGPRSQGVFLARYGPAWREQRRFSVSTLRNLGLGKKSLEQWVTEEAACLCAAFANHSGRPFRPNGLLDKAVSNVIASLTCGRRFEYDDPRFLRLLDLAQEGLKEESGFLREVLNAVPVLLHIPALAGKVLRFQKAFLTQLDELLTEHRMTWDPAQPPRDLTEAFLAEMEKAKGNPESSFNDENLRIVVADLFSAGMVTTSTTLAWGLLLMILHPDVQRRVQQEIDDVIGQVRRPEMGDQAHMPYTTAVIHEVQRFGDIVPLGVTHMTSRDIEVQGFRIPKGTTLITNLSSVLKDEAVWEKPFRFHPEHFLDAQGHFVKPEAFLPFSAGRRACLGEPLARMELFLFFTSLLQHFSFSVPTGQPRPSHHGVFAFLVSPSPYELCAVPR
Sequence of Cytochrome P450 2C9 (P11712 whole entry): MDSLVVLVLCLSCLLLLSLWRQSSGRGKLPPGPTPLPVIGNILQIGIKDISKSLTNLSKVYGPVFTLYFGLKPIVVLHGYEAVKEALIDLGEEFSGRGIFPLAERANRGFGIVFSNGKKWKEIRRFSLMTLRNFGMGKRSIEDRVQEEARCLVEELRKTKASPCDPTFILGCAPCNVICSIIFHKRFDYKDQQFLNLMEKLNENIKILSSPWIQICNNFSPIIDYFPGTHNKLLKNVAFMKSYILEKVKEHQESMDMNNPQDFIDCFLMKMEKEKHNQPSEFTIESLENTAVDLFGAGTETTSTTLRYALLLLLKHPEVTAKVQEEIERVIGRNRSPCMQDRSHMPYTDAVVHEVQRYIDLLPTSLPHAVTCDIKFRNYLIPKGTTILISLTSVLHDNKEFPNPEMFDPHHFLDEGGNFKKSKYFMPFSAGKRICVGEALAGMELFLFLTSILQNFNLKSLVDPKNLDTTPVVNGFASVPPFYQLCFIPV

SMILES: CN(Cc1ccc2c(c1)OCO2)C(=O)c1cc(Cl)c(O)cc1O
- GI50 (SK-BR-3; SK-BR-3, 72 h): 41.8 µM
- GI50 (NCI-H1975 [1]): 103 µM

SMILES: Cc1ccccc1CN(C)C(=O)c1cc(Cl)c(O)cc1O
- GI50 (SK-BR-3; SK-BR-3, 72 h): 4.2 µM
- GI50 (NCI-H1975 [1]): 47.5 µM

SMILES: COc1cc(CN(C)C(=O)c2cc(Cl)c(O)cc2O)c(Cl)c(OC)c1OC
- GI50 (SK-BR-3; SK-BR-3, 72 h): 2.4 µM
- GI50 (NCI-H1975 [1]): 33.8 µM

SMILES: Cc1ccc(CN(C)C(=O)c2cc(Cl)c(O)cc2O)cc1
- GI50 (SK-BR-3; SK-BR-3, 72 h): 7.2 µM
- GI50 (NCI-H1975 [1]): 34.3 µM

SMILES: CCCNC(=O)c1ccc(CN(C)C(=O)c2cc(Cl)c(O)cc2O)cc1
- GI50 (NCI-H1975 [1]): 20.8 µM

SMILES: O=C(NCc1ccccc1)c1cc(Cl)c(O)cc1O
- GI50 (SK-BR-3): inactive
- GI50 (NCI-H1975 [1]): 86.2 µM

SMILES: COc1ccc(CN(C)C(=O)c2cc(Cl)c(O)cc2O)cc1OC
- GI50 (SK-BR-3; SK-BR-3, 72 h): 7.7 µM
- GI50 (NCI-H1975 [1]): 33.4 µM

SMILES: CCNC(=O)c1ccc(CN(C)C(=O)c2cc(Cl)c(O)cc2O)cc1
- GI50 (NCI-H1975 [1]): 21.7 µM

SMILES: CNC(=O)c1ccc(CN(C)C(=O)c2cc(Cl)c(O)cc2O)cc1
- IC50 [2]: 0.496 µM
- GI50 (NCI-H1975 [1]): 34.8 µM

SMILES: COc1cc(CN(C)C(=O)c2cc(Cl)c(O)cc2O)c(Br)c(OC)c1OC
- GI50 (SK-BR-3; SK-BR-3, 72 h): 7.7 µM
- GI50 (NCI-H1975 [1]): 34.3 µM

SMILES: COc1ccc(CN(C)C(=O)c2cc(Cl)c(O)cc2O)cc1
- GI50 (SK-BR-3; SK-BR-3, 72 h): 7.2 µM
- GI50 (NCI-H1975 [1]): 16.7 µM

SMILES: CCCNC(=O)c1ccc(CN(C)C(=O)c2cc(C(C)C)c(O)cc2O)cc1
- IC50 [2]: 0.0053 µM
- GI50 (NCI-H1975 [1]): 0.42 µM
- Kd [3]: 0.00308 µM
- inhibition [4]: Active
- inhibition [5]: Active
- inhibition [6]: Active
- inhibition [7]: Active
- inhibition [8]: Active
- inhibition [9]: Active
- inhibition [10]: Active
- Activity (NCI-H1975 [11]): Active
- Activity (NCI-H1975 [12]): Active
- Activity (NCI-H1975 [13]): Active
- Activity (NCI-H1975 [14]): inactive
- Activity (NCI-H1975 [15]): inactive
- IC50 (Cytochrome P450 2C9): 5.3 µM
- IC50 (Cytochrome P450 1A2): 34.1 µM
- IC50 (Cytochrome P450 2C19): 14.6 µM
- IC50 (Cytochrome P450 2D6): 23 µM
- IC50 at 15 min (CYP3A): 25.9 µM
- Activity (Mus musculus [16]): Non-Toxic
- Activity (NCI-H1975 [17]): Active
- inhibition (Mus musculus [18]): Active
- inhibition (Mus musculus [19]): Active
- inhibition (Mus musculus [20]): Active
- inhibition (Mus musculus [21]): Active
- inhibition (Mus musculus [22]): Active
- inhibition (Mus musculus [23]): Active
- Activity (NCI-H1975 [24]): Non-Toxic
- Activity (Mus musculus [25]): Non-Toxic

SMILES: COC1=C2C[C@@H](C)C[C@H](OC)[C@H](O)[C@@H](C)/C=C(\C)[C@H](OC(N)=O)[C@@H](OC)/C=C\C=C(/C)C(=O)NC(=CC1=O)C2=O [GELDANAMYCIN]
- GI50 (SK-BR-3): inactive
- GI50 (NCI-H1975 [1]): 0.56 µM

SMILES: CN(Cc1ccccc1)C(=O)c1cc(Cl)c(O)cc1O
- GI50 (SK-BR-3; SK-BR-3, 72 h): 18.3 µM
- GI50 (NCI-H1975 [1]): 35.5 µM

SMILES: Cc1cccc(CN(C)C(=O)c2cc(Cl)c(O)cc2O)c1
- GI50 (SK-BR-3; SK-BR-3, 72 h): 11.3 µM
- GI50 (NCI-H1975 [1]): 49.3 µM

SMILES: COc1cc(CN(C)C(=O)c2cc(Cl)c(O)cc2O)cc(OC)c1OC
- IC50 [2]: > 1 µM
- GI50 (SK-BR-3; SK-BR-3, 72 h): 30.1 µM
- GI50 (NCI-H1975 [1]): 73.1 µM

SMILES: CCNC(=O)c1ccc(CN(C)C(=O)c2cc(C(C)C)c(O)cc2O)cc1
- GI50 (NCI-H1975 [1]): 0.46 µM

SMILES: CNC(=O)c1ccc(CN(C)C(=O)c2cc(C(C)C)c(O)cc2O)cc1
- IC50 [2]: 0.0114 µM
- GI50 (NCI-H1975 [1]): 0.86 µM
